Results: PubChem BioAssay AID256 (DTP/NCI, 2004)
“And” between values parts separate entries of the source, which are not always exact repeats. Equal values may be shown once. Toxic doses and inconclusive results are not listed. How the source made its calls: active means survival T/C of 150% or more; inactive means T/C below 125% in these data.

Tested on: CD2F1 mice, L1210 leukemia ip, survival T/C
Assay: NCI In Vivo Anticancer Drug Screen. Data for tumor model L1210 Leukemia (intraperitoneal) in CD2F1 (CDF1) mice
Settings: endpoint: mean survival time, higher = longer survival
Method in brief: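 In this screen, transplantable tumors were grown in mice given either the compound or its vehicle. Results were expressed as the treated measurement relative to the control measurement.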

[1] = dose: 12.5 mg/kg/injection, schedule: Q04DX002 (ip), vehicle: saline
[2] = dose: 25.0 mg/kg/injection, schedule: Q04DX002 (ip), vehicle: saline
[3] = dose: 50.0 mg/kg/injection, schedule: Q04DX002 (ip), vehicle: saline
[4] = dose: 100.0 mg/kg/injection, schedule: Q01DX001 (ip), vehicle: saline with Tween-80
[5] = dose: 100.0 mg/kg/injection, schedule: Q01DX001 (ip), vehicle: saline
[6] = dose: 200.0 mg/kg/injection, schedule: Q01DX001 (ip), vehicle: saline with Tween-80
[7] = dose: 400.0 mg/kg/injection, schedule: Q01DX001 (ip), vehicle: saline with Tween-80
[8] = dose: 100.0 mg/kg/injection, schedule: Q04DX003 (ip), vehicle: saline with Tween-80
[9] = dose: 200.0 mg/kg/injection, schedule: Q04DX003 (ip), vehicle: saline with Tween-80
[10] = dose: 50.0 mg/kg/injection, schedule: Q01DX009 (ip), vehicle: saline with Tween-80
[11] = dose: 100.0 mg/kg/injection, schedule: Q01DX009 (ip), vehicle: saline with Tween-80

Measured: T/C

CC1(C[N+](C)(C)C)COC(C)(C)O1 (stereo not given)
inactive: [1] 95 % of control | dose: 25.0 mg/kg/injection, schedule: Q01DX001 (ip), vehicle: saline 98 % of control | [2] 95 % of control | dose: 50.0 mg/kg/injection, schedule: Q01DX001 (ip), vehicle: saline 96 % of control | [3] 106 % of control | [4] 94 % of control | [5] 103 % of control | dose: 100.0 mg/kg/injection, schedule: Q04DX002 (ip), vehicle: saline 95 % of control

NC(CSC1c2ccccc2-c2ccccc21)C(=O)O (stereo not given)
inactive: dose: 25.0 mg/kg/injection, schedule: Q01DX009 (ip), vehicle: saline 102 % of control | dose: 50.0 mg/kg/injection, schedule: Q01DX009 (ip), vehicle: saline 103 % of control | dose: 100.0 mg/kg/injection, schedule: Q01DX009 (ip), vehicle: saline 102 % of control | dose: 200.0 mg/kg/injection, schedule: Q01DX009 (ip), vehicle: saline 96 % of control | dose: 400.0 mg/kg/injection, schedule: Q01DX009 (ip), vehicle: saline 103 % of control

CC(=O)NC1C(OC(C)=O)C(OC(C)=O)C(OC(C)=O)C(OC(C)=O)C1OC(C)=O (stereo not given)
inactive: [4] 97 % of control | [6] 93 % of control | [7] 93 % of control

COc1cccc2c1C(=O)c1c(O)c3c(c(O)c1C2=O)C[C@@](O)(/C(C)=N/NC(=O)c1ccc(-c2ccccc2)cc1)C[C@@H]3OC1CC(N)C(O)C(C)O1 (stereo not given in full)
inactive: dose: 0.06 mg/kg/injection, schedule: Q01DX009 (ip), vehicle: water 104 % of control | dose: 0.13 mg/kg/injection, schedule: Q01DX009 (ip), vehicle: water 103 % of control | dose: 0.25 mg/kg/injection, schedule: Q01DX009 (ip), vehicle: water 114 % of control | dose: 0.5 mg/kg/injection, schedule: Q01DX009 (ip), vehicle: water 117 % of control | dose: 1.0 mg/kg/injection, schedule: Q01DX009 (ip), vehicle: water 115 % of control | dose: 2.0 mg/kg/injection, schedule: Q01DX009 (ip), vehicle: water 122 % of control | dose: 4.0 mg/kg/injection, schedule: Q01DX009 (ip), vehicle: water 111 % of control | dose: 8.0 mg/kg/injection, schedule: Q01DX009 (ip), vehicle: water 117 % of control | dose: 16.0 mg/kg/injection, schedule: Q01DX009 (ip), vehicle: water 88 % of control

COc1ccccc1NC(=O)Oc1ccc2ccccc2c1
inactive: dose: 100.0 mg/kg/injection, schedule: Q04DX002 (ip), vehicle: saline with Tween-80 103 % of control | dose: 200.0 mg/kg/injection, schedule: Q04DX002 (ip), vehicle: saline with Tween-80 91 % of control

CC(=[N-])CC(C)=O.CC(=[N-])CC(C)=O.[Cu+2]
inactive: dose: 3.13 mg/kg/injection, schedule: Q01DX009 (ip), vehicle: saline with Tween-80 100 % of control | dose: 6.25 mg/kg/injection, schedule: Q01DX009 (ip), vehicle: saline with Tween-80 95 % of control | dose: 12.5 mg/kg/injection, schedule: Q01DX009 (ip), vehicle: saline with Tween-80 90 % of control

CN(CC#N)N=Nc1ccc(C(N)=O)cc1
inactive: dose: 4.68 mg/kg/injection, schedule: Q01DX009 (ip), vehicle: Klucel (hydroxypropylcellulose) (HPC) 96 % of control and 98 % of control | dose: 9.37 mg/kg/injection, schedule: Q01DX009 (ip), vehicle: Klucel (hydroxypropylcellulose) (HPC) 102 % of control and 104 % of control | dose: 18.75 mg/kg/injection, schedule: Q01DX009 (ip), vehicle: Klucel (hydroxypropylcellulose) (HPC) 95 % of control and 98 % of control | dose: 37.5 mg/kg/injection, schedule: Q01DX009 (ip), vehicle: Klucel (hydroxypropylcellulose) (HPC) 102 % of control and 107 % of control | dose: 75.0 mg/kg/injection, schedule: Q01DX009 (ip), vehicle: Klucel (hydroxypropylcellulose) (HPC) 118 % of control

O=C1c2ccccc2CC1c1ccccc1 (stereo not given)
inactive: dose: 12.5 mg/kg/injection, schedule: Q01DX009 (ip), vehicle: other 102 % of control | dose: 25.0 mg/kg/injection, schedule: Q01DX009 (ip), vehicle: other 102 % of control | dose: 50.0 mg/kg/injection, schedule: Q01DX009 (ip), vehicle: other 97 % of control | dose: 100.0 mg/kg/injection, schedule: Q01DX009 (ip), vehicle: other 96 % of control | dose: 200.0 mg/kg/injection, schedule: Q01DX009 (ip), vehicle: other 100 % of control

Cc1ccc(C(C)C)c(OCCCBr)c1
inactive: dose: 25.0 mg/kg/injection, schedule: Q04DX003 (ip), vehicle: saline with Tween-80 101 % of control | dose: 50.0 mg/kg/injection, schedule: Q04DX003 (ip), vehicle: saline with Tween-80 95 % of control | [8] 94 % of control and 95 % of control

CN(C)c1cccc(C(C)(C)C)n1
inactive: [1] 98 % of control | [2] 106 % of control | [3] 95 % of control

O=C1OCCC1C(=O)C(O)(C(F)(F)F)C(F)(F)F (stereo not given)
inactive: dose: 100.0 mg/kg/injection, schedule: Q04DX003 (ip), vehicle: other 113 % of control | dose: 200.0 mg/kg/injection, schedule: Q04DX003 (ip), vehicle: other 87 % of control | dose: 400.0 mg/kg/injection, schedule: Q04DX003 (ip), vehicle: other 107 % of control

NCC(OC1CCCCC1)C(Cl)(Cl)Cl (stereo not given)
inactive: [8] 101 % of control | [9] 93 % of control

COCc1ccc(C(=O)O)cc1
inactive: [4] 105 % of control | [6] 96 % of control | [7] 97 % of control

[CH3][Sn]1([CH3])[O]C2C(CO)OC(n3ccc4c(N)ncnc43)C2[O]1 (stereo not given)
inactive: dose: 0.78 mg/kg/injection, schedule: Q01DX005 (ip), vehicle: other 111 % of control | dose: 1.56 mg/kg/injection, schedule: Q01DX005 (ip), vehicle: other 107 % of control | dose: 3.13 mg/kg/injection, schedule: Q01DX005 (ip), vehicle: other 115 % of control

CC1=CC(=O)C=C/C1=N/S(=O)(=O)c1ccccc1
inactive: dose: 25.0 mg/kg/injection, schedule: Q01DX001 (ip), vehicle: saline with Tween-80 93 % of control | dose: 50.0 mg/kg/injection, schedule: Q01DX001 (ip), vehicle: saline with Tween-80 90 % of control | [4] 97 % of control

COc1cc(Cl)ccc1NC(=O)Nc1c(C)n(C)n(-c2ccccc2)c1=O
inactive: [10] 90 % of control | [11] 90 % of control

O=P1(C(Cl)Cl)OCCCCO1
inactive: [5] 102 % of control | dose: 200.0 mg/kg/injection, schedule: Q01DX001 (ip), vehicle: saline 102 % of control | dose: 400.0 mg/kg/injection, schedule: Q01DX001 (ip), vehicle: saline 105 % of control

Cc1ccc(NC(=O)N2CCN(C)CC2)cc1[N+](=O)[O-]
inactive: [10] 94 % of control | [11] 90 % of control | dose: 200.0 mg/kg/injection, schedule: Q01DX009 (ip), vehicle: saline with Tween-80 94 % of control

CC1=C(/C=C/C(C)=C/C=C/C(C)=C/C(=O)O)C(C)(C)CCC1
inactive: dose: 8.0 mg/kg/injection, schedule: Q01DX009 (ip), vehicle: saline with Tween-80 100 % of control | dose: 16.0 mg/kg/injection, schedule: Q01DX009 (ip), vehicle: saline with Tween-80 95 % of control | dose: 32.0 mg/kg/injection, schedule: Q01DX009 (ip), vehicle: saline with Tween-80 95 % of control | dose: 64.0 mg/kg/injection, schedule: Q01DX009 (ip), vehicle: saline with Tween-80 97 % of control | [8] 105 % of control | dose: 128.0 mg/kg/injection, schedule: Q01DX009 (ip), vehicle: saline with Tween-80 87 % of control | [9] 100 % of control | dose: 400.0 mg/kg/injection, schedule: Q04DX003 (ip), vehicle: saline with Tween-80 97 % of control

CCCCCCCC(=O)N1C=CN(C(=O)CCCCCCC)C1
inactive: dose: 75.0 mg/kg/injection, schedule: Q04DX003 (ip), vehicle: saline 104 % of control | dose: 150.0 mg/kg/injection, schedule: Q04DX003 (ip), vehicle: saline 98 % of control | dose: 300.0 mg/kg/injection, schedule: Q04DX003 (ip), vehicle: saline 98 % of control

CC(=O)Nc1nc(Br)c2ccccc2c1-c1ccc(N(CCO)CCO)cc1
inactive: dose: 25.0 mg/kg/injection, schedule: Q04DX003 (ip), vehicle: DMSO 90 % of control | dose: 50.0 mg/kg/injection, schedule: Q04DX003 (ip), vehicle: DMSO 90 % of control | dose: 100.0 mg/kg/injection, schedule: Q04DX003 (ip), vehicle: DMSO 94 % of control | dose: 200.0 mg/kg/injection, schedule: Q04DX003 (ip), vehicle: DMSO 87 % of control

C/C=C1/C[C@@H](C)[C@@](C)(O)C(=O)OCC2=CC[N+]3([O-])CC[C@@H](OC1=O)[C@@H]23 (stereo not given in full)
inactive: [4] 103 % of control | [6] 97 % of control
